Reference: patent US20140220135A1, “PERMEATION ENHANCED ACTIVE-CARRYING NANOPARTICLES” (Midatech Limited, priority 2013, published 2014)
“Also recorded” adds a separate entry of the source.

How the values were obtained:
[1] = Glucose clearance in somatostatin-infused minipigs after glucose bolus; assay type: in vivo; settings: transbuccal strips of NP-insulin, μg DoD/strip, period of 40 to 60 minutes, FIG. 8
Experimental: Minipigs were infused with somatostatin in order to suppress endogenous insulin secretion. They were then given a bolus injection of 0.33 gm/kg glucose. After thirty minutes the test item was given and the first order rate constant for glucose clearance (k) was calculated for the period of 40 to 60 minutes.
Test items included: 1. Strips containing 4 U insulin on nanoparticle applied transbuccal; 2. Strips containing 4 U insulin on nanoparticle dodecyl-β-D-maltoside applied transbuccal; 3. Subcutaneous (s.c.) nanoparticle-insulin (NP-insulin); 4. S.C. commercial Humalog® insulin.

[2] = test system: insulin-carrying gold nanoparticles ("GNPI"); test: Insulin release from insulin-carrying gold nanoparticles incubated with permeation enhancer, BCA protein assay of supernatant; assay type: physicochemical
Experimental: […] Samples were mixed and left at RT for 1 h, they were then spun for 2 min at 18000 g and 10 μl of each supernatant was measured by BCA protein assay to determine insulin release, a blank and a positive control in which no TDM was added and the sample was not spun were also included.
The sample tubes were vortexed and left at RT for a further 95 h (for a total of 96 hours) and re-assayed as above to see if there was any further indication of insulin release.
In a follow on experiment lysalbinic acid (LAA) was also tested as an alternative potential permeation enhancer, the same protocol was used as for TDM above.

insulin release by TDM over 0 TDM control ([2]; 1 h at RT in water, 2.5-67.5 μg TDM in 0.5 ml, FIG. 2) | further insulin release after a total of 96 hours ([2]; 96 h at RT in water, FIG. 3) | loss of bound active from active-carrying nanoparticle ([2]; 96 hours of incubation in solution) | percentage of insulin released against percentage of permeation enhancer ([2]; insulin level of 75 U/ml, FIG. 5 and FIG. 6) | effect on insulin release from GNPI (overall conclusion) ([2]; range of concentrations, in water, short or medium term) | SMILES | first order rate constant for glucose clearance (k) against dosage of DoD [1]
 |  |  |  |  | CCCCCCCCCCCCO[C@@H]1O[C@H](CO)[C@@H](O[C@H]2O[C@H](CO)[C@@H](O)[C@H](O)[C@H]2O)[C@H](O)[C@H]1O [DoD, dodecyl-β-D-maltoside] | apparent dose-dependence; also recorded: clear dose-dependence
less than 5% | no further release | without significant loss of bound active | lack of effect | no gross effect | CCCCCCCCCCCCCCO[C@@H]1O[C@H](CO)[C@@H](O[C@H]2O[C@H](CO)[C@@H](O)[C@H](O)[C@H]2O)[C@H](O)[C@H]1O [TDM, tetradecyl-D-maltoside] | 
